Assay results as given in patent US8395037B2, “Pharmaceutical compositions for treating/preventing motor organ diseases” (Mitsubishi Corporation, priority 2005, dated 2013).

Legend:
[1] = system: MMP-3; experiment: MMP-3 production in cultured chondrocytes treated with cartilage degenerating factor (ELISA); type: cell-based, human; conditions: for Production of MMP-3: IL-1β or H2O2 treated chondrocytes, 50 or 100 μM, 24 h
Method: Chondrocytes isolated from human articular cartilage tissues were used for cultured cells. After obtaining informed consent, cartilage tissues were collected from surgically-removed tissues from eight osteoarthritis patients. The collected tissues were sliced and then treated in a liquid low-glucose Dulbecco's modified Eagle's medium (DMEM, manufactured by Gibco Co.) containing 1.5 mg/ml collagenase B at 37° C. overnight, to isolate chondrocytes for culture. The cells were normally cultured in a culture flask (culture area: 25 cm^2), and in a polystyrene culture dish (diameter: 6 cm) for use in the experiments. […]
Influence of hydroxylated C60 fullerene on cartilage matrix-degrading enzyme production which is enhanced by cartilage catabolism inducers was analyzed using the enzyme-linked immunoassay (ELISA) method.
Chondrocytes that had been isolated and cultured by the above method (1) were subjected to two passage cultures. […] After a 24 hour incubation, the culture supernatant was collected, and the concentrations of cartilage matrix-degrading enzymes, matrix metalloprotease (MMP)-1, 3, and 13, were measured.
The concentrations of MMP-1, MMP-3, and MMP-13 in the culture supernatant were determined using ELISA kits (kits for MMP-1 and MMP-3, manufactured by R&D Co.; and a kit for MMP-13, manufactured by Amersham), which is the standard technique currently known in the art. […] 100 μl of 1.5 N H3PO4 was added to each well to stop the color reaction, and the absorbance at 450 nm was measured using a microtiter plate reader. According to the instructions provided by the manufacturer, the measured concentrations were calibrated using a lyophilized control reagent.

[2] = system: proteoglycan; experiment: Cartilage matrix (proteoglycan) production in cultured chondrocytes (ELISA); type: cell-based, human; conditions: for Cartilage matrix (proteoglycan)-synthesizing ability: decreased by IL-1β or H2O2, 50 and 100 μM, 24 h
Method: Chondrocytes isolated from human articular cartilage tissues were used for cultured cells. After obtaining informed consent, cartilage tissues were collected from surgically-removed tissues from eight osteoarthritis patients. The collected tissues were sliced and then treated in a liquid low-glucose Dulbecco's modified Eagle's medium (DMEM, manufactured by Gibco Co.) containing 1.5 mg/ml collagenase B at 37° C. overnight, to isolate chondrocytes for culture. The cells were normally cultured in a culture flask (culture area: 25 cm^2), and in a polystyrene culture dish (diameter: 6 cm) for use in the experiments. The cell culture was performed using a DMEM medium added with inactivated fetal bovine serum (FBS, manufactured by TRACE Co.) at 10% volume of the medium, and also 2 mM L-glutamine, 25 mM HEPES, and penicillin and streptomycin at 100 units/ml, in either a CO2 incubator (normoxic condition) which was set at 5% CO2+95% air, or a low oxygen chamber (hypoxic condition) which was set at 1% O2+5% CO2+94% N2, at 37° C. under saturated humidity.
Influence of hydroxylated 60 fullerene on cartilage matrix (proteoglycan or type II collagen) production ability decreased by cartilage catabolism inducers was analyzed using ELISA.
Chondrocytes that had been isolated and cultured by the above method (1) were subjected to two secondary cultures. Then, these cells in a subconfluent state were disseminated into a 24 well-culture plate at 1×10^5 cells/well. After incubation for 12 hours, the wells were washed with PBS and the medium was replaced with a fresh 10% FBS-containing DMEM. […]
The production quantities (concentrations) of the cartilage matrix (proteoglycan and type II collagen) in the culture supernatant were determined using ELISA kits (a kit for proteoglycan, manufactured by BioSource; and a kit for type II collagen, manufactured by Chondrex, Inc.), which is the standard technique currently known in the art.

[3] = system: proteoglycan; experiment: Proteoglycan production in cultured chondrocytes (western blotting); type: cell-based, human; conditions: chondrocytes treated with cartilage degenerating factors
Method: Chondrocytes prepared according to the above method and chondrocytes of the control groups were collected with a cell scraper, and centrifuged to remove the supernatant. Then, 0.5% Triton X-100 aqueous solution was added thereto, and ultrasonic disintegration was performed on ice for one minute, to obtain a protein extract. The concentrations of the respective protein solutions were measured, and each sample was placed on 5% to 10% gradient SDS-polyacrylamide electrophoresis gel at 100 ng/lane, and subjected to electrophoresis.
Proteins in the gel were transferred onto a polyvinylidene difluoride membrane (manufactured by Pharmacia Co.) using a semidry blotting apparatus (manufactured by Amersham). The membrane was blocked with 5% skim milk (manufactured by Morinaga Co.), and then treated with 5 μg/ml of anti-proteoglycan monoclonal antibodies (manufactured by Chemicon Co.) at room temperature for one hour. The membrane was washed with PBS containing 0.01% Tween-20 (hereunder, abbreviated as “TPBS”), and then treated with 5,000-fold-diluted peroxidase-labeled anti-mouse IgG antibodies (manufactured by Amersham) as secondary antibodies, at room temperature for one hour. […]

[4] = system: MMP-3; experiment: MMP-3 concentration in synovial fluid of osteoarthritis model knee joints (ELISA); type: in vivo, rabbit; conditions: various concentrations, sequential measurement, versus control knees
Method: Sequential biochemical examinations of blood and synovial fluid were also performed (pre-administration and fourth- and eighth-week post-administration of water-solubilized fullerene). The observed biochemical examination items were (A) hepatic function (GOT and GPT), renal function (urea nitrogen and creatinine), and electrolytes (Na, K, and Cl), (B) extracellular matrix-degrading enzyme production ability (MMP-1, 3, and 13), and (C) cartilage matrix-synthesizing ability (proteoglycan). The items of (A) were measured by commercially available testing equipments and items of (B) and (C) were measured by ELISA method.

Substance: hydroxylated C60 fullerene
- Production of MMP-3 [1]: inhibited in all cases
- Production of MMP-3 ([1]; listed as fullerene): decreased the amount of MMP-3 produced
- Inhibitory effect on production of MMP-3 ([1]; hypoxic condition): also observed
- Cartilage matrix (proteoglycan)-synthesizing ability [2]: restored cartilage matrix synthesis
- Cartilage matrix (proteoglycan)-synthesizing ability ([2]; listed as hydroxylated 60 fullerene): able to restore the decreased synthesizing ability
- Proteoglycan synthesizing ability ([2]; fullerene alone, versus control groups): increased as compared to that of the control groups
- Production of proteoglycan (western blotting) [3]: the inhibition against the production of cartilage matrix, proteoglycan, due to the cartilage degenerating factors was inhibited
- Production of proteoglycan (western blotting) ([3]; listed as fullerene): restored
- MMP-3 concentration in synovial fluid [4]: No remarkable difference
